Experimental data: PMC12578387, “TET3 is a common epigenetic immunomodulator of pathogenic macrophages” (The Journal of Clinical Investigation, 2025)

Tests used:
TET1 = TET1 (Homo sapiens, UniProt Q8NFU7); experiment: AlphaScreen of Bc-dependent TET1-VHL ternary complex formation (weaker than TET3; no TET1 degradation in cells); assay type: binding
[1] = target: TET3 (Tet methylcytosine dioxygenase 3) (Homo sapiens, UniProt O43151); experiment: AlphaScreen of Bc-dependent TET3-VHL ternary complex formation; supported by co-IP and degradation of TET3 in human MDMs; assay type: binding
TET3 (Tet methylcytosine dioxygenase 3), sequence (O43151 850-1795 limits assumed): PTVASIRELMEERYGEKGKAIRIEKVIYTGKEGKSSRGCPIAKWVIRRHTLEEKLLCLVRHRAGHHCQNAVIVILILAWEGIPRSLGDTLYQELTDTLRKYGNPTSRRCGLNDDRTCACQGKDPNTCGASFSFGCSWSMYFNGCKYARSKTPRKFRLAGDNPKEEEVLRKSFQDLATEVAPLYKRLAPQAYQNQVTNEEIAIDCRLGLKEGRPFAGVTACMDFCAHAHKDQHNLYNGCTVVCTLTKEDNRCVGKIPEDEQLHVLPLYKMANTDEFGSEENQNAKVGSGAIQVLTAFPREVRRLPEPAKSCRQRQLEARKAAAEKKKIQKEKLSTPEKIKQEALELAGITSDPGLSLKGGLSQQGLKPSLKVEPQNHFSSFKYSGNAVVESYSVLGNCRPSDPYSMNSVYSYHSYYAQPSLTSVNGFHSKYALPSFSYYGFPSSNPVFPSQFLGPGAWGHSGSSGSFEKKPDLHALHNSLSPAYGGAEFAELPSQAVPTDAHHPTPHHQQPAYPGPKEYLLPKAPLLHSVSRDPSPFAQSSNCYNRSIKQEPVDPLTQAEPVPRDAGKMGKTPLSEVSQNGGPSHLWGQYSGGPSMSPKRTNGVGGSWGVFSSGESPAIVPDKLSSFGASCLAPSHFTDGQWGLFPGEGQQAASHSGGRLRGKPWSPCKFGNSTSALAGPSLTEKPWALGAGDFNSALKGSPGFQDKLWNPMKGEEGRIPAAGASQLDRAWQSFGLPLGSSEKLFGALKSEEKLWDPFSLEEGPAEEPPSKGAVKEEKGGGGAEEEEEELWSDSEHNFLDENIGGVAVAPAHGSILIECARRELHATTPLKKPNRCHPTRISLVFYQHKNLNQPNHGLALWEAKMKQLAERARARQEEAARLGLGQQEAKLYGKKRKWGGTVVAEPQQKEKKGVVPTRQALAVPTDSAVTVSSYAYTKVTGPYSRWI
TET3 (Tet methylcytosine dioxygenase 3), sequence (P40337 whole entry partner): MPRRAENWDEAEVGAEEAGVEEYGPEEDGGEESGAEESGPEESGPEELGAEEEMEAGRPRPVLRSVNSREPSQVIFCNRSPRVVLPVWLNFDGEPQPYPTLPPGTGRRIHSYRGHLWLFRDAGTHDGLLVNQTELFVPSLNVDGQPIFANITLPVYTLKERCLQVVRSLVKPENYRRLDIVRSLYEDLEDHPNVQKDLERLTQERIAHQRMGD

TET1, sequence (Q8NFU7 1418-2136 limits assumed): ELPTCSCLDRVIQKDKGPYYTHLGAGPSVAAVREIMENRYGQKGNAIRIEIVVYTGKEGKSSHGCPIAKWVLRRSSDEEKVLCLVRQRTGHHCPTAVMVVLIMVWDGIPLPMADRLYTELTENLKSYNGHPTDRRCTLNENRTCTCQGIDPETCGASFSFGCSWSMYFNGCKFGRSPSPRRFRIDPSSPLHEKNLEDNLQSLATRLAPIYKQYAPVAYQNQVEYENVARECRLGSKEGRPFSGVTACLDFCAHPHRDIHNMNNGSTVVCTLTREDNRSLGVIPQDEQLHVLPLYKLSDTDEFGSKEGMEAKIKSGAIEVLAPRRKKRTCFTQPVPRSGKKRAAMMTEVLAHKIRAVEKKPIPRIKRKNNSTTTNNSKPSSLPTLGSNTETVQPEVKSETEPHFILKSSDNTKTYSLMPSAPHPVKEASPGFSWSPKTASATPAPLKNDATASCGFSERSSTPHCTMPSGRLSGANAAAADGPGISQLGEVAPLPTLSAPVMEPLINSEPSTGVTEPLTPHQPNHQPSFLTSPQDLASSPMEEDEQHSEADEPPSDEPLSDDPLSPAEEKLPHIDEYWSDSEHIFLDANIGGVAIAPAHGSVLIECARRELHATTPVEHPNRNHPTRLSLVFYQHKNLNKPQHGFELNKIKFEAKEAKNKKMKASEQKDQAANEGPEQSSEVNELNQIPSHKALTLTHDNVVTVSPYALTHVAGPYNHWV
TET1, sequence (P40337 whole entry partner): as the sequence (P40337 whole entry partner) above

An EC50 (TET1) of 8.51 mM and an EC50 [1] of 50 µM were found for `Nc1nc(=O)n(-c2cccc(-c3ccccc3)c2)cc1Cl` [Bc, Bobcat339] in this work.
